We go through 22 compounds from PubChem BioAssay (NCI).

Holding throughout (assay): inhibition of tumour cell growth, NCI panel, 48 h
The test system of test [1] is SK-MEL-5 melanoma.
Test [2] concerns NCI-H522 lung.
Test [3] has as its system SF-268 CNS.
Test [4] concerns RXF 393 renal.
For test [5], the system named is UACC-257 melanoma.
The test system of test [6] is HOP-62 NSCLC.
In test [7] the test system is HCT-116 colon.
In test [8] the test system is CCRF-CEM leukemia.
In test [9] the test system is HCT-15 colon.
Test [10] relates to A498 renal.

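Exposure lasted 48 hours, with cells grown in 96-well plates and compounds tested at five concentrations. Abbreviation: GI50, concentration required for 50% inhibition of growth. TGI: concentration producing complete growth inhibition.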

For the compound `Cc1cc(S(=O)(=O)NC#N)c(S/C(=N\Nc2ccc([N+](=O)[O-])cc2)c2ccccc2)cc1Cl`, the GI50 is 19.3 µM in [1]; 14.6 µM in test [2]; 19.2 µM in [3]; 23.4 µM in test [4]; 35.9 µM in test [5]; 17.2 µM in test [6]. Also, the results for the GI50 in test [7] and in test [8] were 13.8 µM and 20.2 µM, respectively. Also, the TGI in test [1] was 35.7 µM; in [2], 32.6 µM; in [3] it was 43.7 µM; in test [4], 48.9 µM; in test [5] it was above 100 µM; in test [6], 32.3 µM. The TGI in test [7] turned out to be 30.6 µM; in test [8], 51.5 µM.
For `c1cncc(C(Nc2cccc3cccnc23)Nc2cccc3cccnc23)c1`, the TGI in test [1], in [2], in test [3], in test [4], in [5] and in [6] was above 100 µM in each case. Also, the TGI in [7], in [9] and in test [8] was above 100 µM each time.
Consider `Clc1cc(Cl)cc(N2N=C(c3cccc(Nc4ccncc4)c3)CC2c2ccc(Br)cc2)c1` (stereo not drawn), for which the GI50 in [1] was 1.81 µM; in [2] it was 1.88 µM; in test [3] it was 1.76 µM; in test [10] it was 1.08 µM; in test [5] it was 1.92 µM; in test [9], 1.8 µM. Moreover, the GI50 in test [8] is 3.02 µM. For the same compound, the TGI was 3.26 µM in test [1]; 3.88 µM in [2]; 3.58 µM in test [3]; 2.3 µM in [10]; 3.85 µM in test [5]; 3.49 µM in [9]. In test [8], this compound came in with a TGI of 31.2 µM.
As to `COc1ccc(/C=C2\CNC/C(=C\c3ccc(OC)cc3)C2=O)cc1`, the TGI in test [1] was above 100 µM; in test [3], 79.2 µM; in [4], 53.8 µM; in test [5], above 100 µM; in test [6], above 100 µM; in test [7] it was 13 µM. For the same compound, the TGI in test [9] is above 100 µM; in test [8], 44.8 µM.
Regarding `Cc1cc(N/N=C/c2nc(-c3ccccc3)oc2C)c2cc(Cl)ccc2n1`, the GI50 in test [1] was 1.76 µM; in test [10], 3.2 µM; in test [4], 1.7 µM; in test [5], 2.01 µM; in [6], 1.85 µM; in [7], 1.82 µM. Moreover, in test [9], the GI50 was 1.68 µM. Moreover, the TGI in test [1] came to 3.2 µM; in [10], 18.1 µM; in test [4], 3.42 µM; in [5], 4.9 µM; in [6] it was 3.66 µM; in test [7], 3.39 µM. Further, the TGI in [9] stood at 3.37 µM.
`O=C(Nc1ccc(Nc2ccncc2)cc1)c1ccc(Nc2ccnc3ccc([N+](=O)[O-])cc23)cc1`: the GI50 in test [1] was 71.4 µM; in [2] it was above 100 µM; in test [3], 29.9 µM; in test [10], above 100 µM; in test [5], above 100 µM; in test [6], above 100 µM. For the same compound, the GI50 in test [7], in test [9] and in [8] was above 100 µM throughout. Besides, the TGI in test [1], in test [2], in test [3], in test [10], in test [5] and in test [6] was above 100 µM throughout. Besides, the TGI in [7], in test [9] and in test [8] was above 100 µM throughout.
Regarding `O=C(c1ccc(NCN2C(=O)CCC2=O)cc1)c1ccc(NCN2C(=O)CCC2=O)cc1`, the TGI in test [1] is above 100 µM; in test [2], above 100 µM; in [3], above 100 µM; in test [4], above 100 µM; in [5], 84.6 µM; in test [6] it was above 100 µM. Besides, the TGI in test [7], in [9] and in [8] was above 100 µM each time.
`NC1CCC[C@@H](O)[C@H]1O` (stereo partly drawn): the TGI in [1], in test [2], in [3], in [10], in test [5] and in test [6] was above 100 µM in each case. The TGI in [7], in [9] and in test [8] was above 100 µM throughout.
`COc1ccc(C(=O)/C=C/c2cc(C(=O)c3cc(OC)c(OC)c(OC)c3)ccc2OC)cc1`: the GI50 in test [3] was 3.51 µM; in [10], 7.33 µM; in test [4] it was 14.7 µM; in test [6], 11.8 µM. Further, the TGI in [3] was above 100 µM; in test [10] it was above 100 µM; in [4], above 100 µM; in test [6], 94.5 µM.
Take `NC(=NC1CCCCCC1)c1ccc(N2CCN(c3ccc(C(N)=NC4CCCCCC4)cc3)CC2)cc1`: the GI50 in test [1] was 1.33 µM; in test [2] it was 5.42 µM; in [3], 6.92 µM; in [4] it was 9.99 µM; in [5] it was 9.75 µM; in [6] it was 8.48 µM. Moreover, the GI50 in [7] was 10.2 µM; in test [9] it was 24.3 µM; in test [8], 10.5 µM. Also, the TGI in test [1] is 6.76 µM; in [2], 23.9 µM; in test [3], 15 µM; in test [4], 35.6 µM; in test [5], above 50 µM; in test [6], 22.6 µM. In addition, the TGI in test [7] was 48.8 µM; in [9], above 50 µM; in test [8], 46.5 µM.
As to `CCOC(=O)NC(=O)c1cn(CCCOC(=O)CCCCCCCCC(=O)OCCCn2cc(C(=O)NC(=O)OCC)c(=O)[nH]c2=O)c(=O)[nH]c1=O`, the TGI in [1] was above 100 µM; in test [10] it was 67.5 µM; in test [5], 48.4 µM; in test [6], above 100 µM; in test [7], above 100 µM; in test [9], 68.8 µM. The TGI in [8] is 21.6 µM.
With `COC1CC(OS(=O)(=O)c2ccc(C)cc2)C(OS(=O)(=O)c2ccc(C)cc2)C(COS(=O)(=O)c2ccc(C)cc2)O1` (stereo not drawn), the TGI came out at 25.7 µM in test [1]; 16 µM in test [2]; 3.02 µM in test [3]; 4.64 µM in test [4]; 21 µM in test [5]; 5.09 µM in [6]. The TGI was above 100 µM in test [7], 19 µM in [9] and above 100 µM in [8].
As for `CN(C)c1ccc(/C=C2\N=C(c3ccc(N)cc3)OC2=O)cc1`, the TGI in test [1], in test [2], in [3], in [10], in test [5] and in test [6] was above 100 µM each time. Moreover, the TGI in test [9] and in test [8] was above 100 µM throughout.
Turning to `O=C(CNC(=O)c1cccc2ccccc12)Nc1ccccc1Oc1ccccc1`, the GI50 in [1] was 0.262 µM; in test [2], 0.151 µM; in [3], 0.435 µM; in [10], 0.256 µM; in [6], 0.354 µM; in test [7] it was 0.322 µM. For the same compound, the GI50 in [9] is 0.245 µM; in [8], 0.345 µM. The TGI in test [1] was 4.1 µM; in test [2], 0.612 µM; in test [3], above 10 µM; in test [10] it was above 10 µM; in [6], above 10 µM; in test [7], above 10 µM. The TGI in test [9] and in test [8] was above 10 µM each time.
As for `Cc1cc2c(c(C#N)c1C)NC(=O)C(CC(=O)O)C2=O` (stereo not drawn), the TGI in test [1], in [3], in test [10], in [4], in test [5] and in test [6] was above 100 µM each time. For the same compound, the TGI in test [7], in [9] and in test [8] was above 100 µM in each case.
As for `CCCCC(=O)[O-].N.N.N.N.N.[Co+3].[O-][Cl+3]([O-])([O-])[O-]`, the GI50 in [1], in [2], in [3], in test [10], in [5] and in [6] was above 100 µM in each case. The GI50 in [7], in test [9] and in test [8] was above 100 µM throughout. In addition, the TGI in [1], in [2], in test [3], in [10], in test [5] and in [6] was above 100 µM each time. The TGI in test [7], in test [9] and in test [8] was above 100 µM in each case.
With `CCOC(=O)C#Cc1ccc(C#CC(=O)OCC)cc1`, the TGI in test [1] is above 27.4 µM; in test [3] it was above 22.4 µM; in test [10], above 51.5 µM; in [4] it was 16.6 µM; in test [5] it was above 56.4 µM; in test [6], above 29.3 µM. The TGI in [7] is 11.2 µM; in test [9] it was above 20.2 µM; in [8], above 20.8 µM.
In the case of `N#CC1(c2nc3ccccc3o2)C(=O)C(=O)N(c2ccc(Cl)c(Cl)c2)C(=O)C1=O`, the TGI in test [1], in test [2], in test [3], in test [4], in test [5] and in test [6] was above 100 µM in each case. The TGI in [9] and in test [8] was above 100 µM in each case.
For `Cc1ccc(NC2=C(Sc3ccc(Cl)cc3)C(=O)N(Cc3ccccc3)C2=O)cc1Cl`, the GI50 in [1] was 5.84 µM; in test [2], 3.62 µM; in test [3], 6.26 µM; in test [10], 4.8 µM; in [5], 7.37 µM; in test [6] it was 3.14 µM. Further, the GI50 in [7] was 3.6 µM; in [9] it was 10.6 µM; in test [8] it was 11.1 µM. Further, the TGI in [1] came to 20.3 µM; in [2], 14.9 µM; in [3], 93.7 µM; in test [10] it was 17.1 µM; in test [5] it was 30.3 µM; in test [6], 10.4 µM. The TGI is 15 µM in test [7], above 100 µM in test [9] and 23.1 µM in test [8].
For `Cc1nc(NC(=S)Nc2ccc(F)cc2)sc1C(=O)NNC(=S)Nc1ccc(F)cc1`, the GI50 was 3.5 µM in test [1]; 21.1 µM in test [2]; 10.7 µM in test [3]; 2.4 µM in test [10]; 10.1 µM in test [5]; 26.5 µM in test [6]. The GI50 in [7] is 7.93 µM; in test [8], 2.56 µM. Besides, the TGI was 15.2 µM in [1]; above 100 µM in test [2]; 28.5 µM in test [3]; 15.4 µM in test [10]; 36.8 µM in [5]; 82.5 µM in test [6]. In addition, the TGI in [7] was above 100 µM; in [8], 15.7 µM.
As for `CC[O-].CC[O-].O=Nc1ccc2cc([O-])ccc2c1.O=Nc1ccc2cc([O-])ccc2c1.[Ti+4]`, the GI50 in test [3] was 2.29 µM; in [10] it was 9.01 µM; in test [5], 1.61 µM; in [6] it was 3.3 µM; in test [7] it was 1.77 µM; in [8], 2.71 µM. Moreover, the TGI is 5.78 µM in test [3]; 27.3 µM in [10]; 3.14 µM in test [5]; 10.5 µM in test [6]; 3.22 µM in test [7]; above 27.3 µM in test [8].
With `Cl.Fc1c[c-]c(-c2ccccn2)c(F)c1.[Pt].c1ccc([PH+](CC[PH+](c2ccccc2)c2ccccc2)c2ccccc2)cc1`, the GI50 in test [1] was 0.13 µM; in test [10], 0.103 µM; in [4] it was 0.214 µM; in test [5] it was 0.165 µM; in test [6], 0.186 µM. In addition, the TGI in test [1] stood at 0.261 µM; in test [10] it was 0.478 µM; in test [4] it was 0.997 µM; in test [5] it was 0.975 µM; in test [6], 0.688 µM.
